For 23 molecules, IC50 and melting point results are on record in patent US7829560B2, “1,4-disubstituted naphthalenes as inhibitors of P38 MAP kinase” (Arqule, Inc., priority 2004, dated 2010).

In general, IC50 refers to the concentration that gives 50% inhibition. In general, melting point refers to the temperature, or range, at which the solid turns liquid.

The target in data set [1] is T1, p38α (Homo sapiens, UniProt Q16539).
T1 construct: p38 MAP Kinases are recombinant human full-length proteins with an amino-terminal GST fusion; GST (N); purchased Upstate Biotechnology Inc; host or cells: E. coli
As to the kind of experiment: p38 MAP Kinase assay: inhibition of ATF2 phosphorylation, ELISA. Conditions: ATF2 phosphorylation; read-out: [ENZ] P38 ALPHA, IC50, ELISA. In kind it is biochemical. Summed up:
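GST-tagged full-length human p38 MAP kinase with GST-ATF2 (aa 19–96; 1.25 μM) and 40 μM ATP in HEPES pH 7.5 buffer, without (Method I) or with (Method II) 1% human serum albumin. Compound pre-incubated 15 min at room temperature; reaction 30 min at 37 °C; ATF2 Thr69 phosphorylation measured by ELISA (A450).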
In general terms: An ELISA detects its analyte on a solid surface through an enzyme-linked reagent.

Data set [2] concerns TNFα release from THP-1 cells. In words: Inhibition of TNFα release from LPS-stimulated THP-1 cells, ELISA. It is filed as cell-based. Particulars: Homo sapiens, THP-1, THP-1 cells, read-out: [CELL] THP-1, IC50, TNF ALPHA, ELISA. In short, it runs like this: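 Human THP-1 monocytes, 10^6 cells/ml in RPMI with 10% FBS, no serum or 1% HSA, preincubated 30 min at 37 °C with compound (≤0.5% DMSO), then stimulated with 10 μg/ml LPS for 18 h. Supernatant TNFα measured by ELISA; IC50 from non-linear dose-response regression.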

Bounds are passed on as bounds.

T1 sequence (Q16539 whole entry, the tested form may be a part): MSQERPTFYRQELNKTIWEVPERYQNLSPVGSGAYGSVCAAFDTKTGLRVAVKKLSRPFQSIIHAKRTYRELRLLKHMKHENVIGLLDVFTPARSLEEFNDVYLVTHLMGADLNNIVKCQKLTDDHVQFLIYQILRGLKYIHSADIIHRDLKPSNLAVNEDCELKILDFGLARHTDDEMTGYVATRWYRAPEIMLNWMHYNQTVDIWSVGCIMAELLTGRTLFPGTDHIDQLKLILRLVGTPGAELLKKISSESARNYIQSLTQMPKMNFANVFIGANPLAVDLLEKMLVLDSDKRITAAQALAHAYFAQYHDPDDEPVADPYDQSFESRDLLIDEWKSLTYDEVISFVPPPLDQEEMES

Take `CC(C)CNc1nccc(Oc2ccc(NC(=O)c3cc(F)cc(N4CCOCC4)c3)c3ccccc23)n1` [Compound B318, 3-Fluoro-N-(4-{[2-(isobutylamino)pyrimidin-4-yl]oxy}-1-naphthyl)-5-morpholin-4-ylbenzamide]: the melting point was in the range of 96 to 97 °C. In addition, the concentration for half-maximal inhibition (IC50) in data set [1] is 7.2 nM. Further, the IC50 in data set [2] was 38.3 nM.

`COCCNc1nccc(Oc2ccc(NC(=O)c3cc(F)cc(N4CCOCC4)c3)c3ccccc23)n1` [Compound B319, 3-Fluoro-N-[4-({2-[(2-methoxyethyl)amino]pyrimidin-4-yl}oxy)-1-naphthyl]-5-morpholin-4-ylbenzamide] showed a melting point of 95 to 97 °C. Moreover, in data set [1], the IC50 worked out at 1 nM. For the same molecule, in data set [2], the half-maximal inhibitory concentration (IC50) was determined as 59.3 nM.

Take `O=C(Nc1ccc(Oc2ccnc(N3CCC4(CC3)OCCO4)n2)c2ccccc12)c1cc(F)cc(N2CCOCC2)c1` [Compound B320, N-(4-{[2-(1,4-Dioxa-8-azaspiro[4.5]dec-8-yl)pyrimidin-4-yl]oxy}-1-naphthyl)-3-fluoro-5-morpholin-4-ylbenzamide]: the melting point is 115 to 117 °C. Besides, the IC50 in data set [1] was determined as 7.1 nM. Besides, the IC50 in data set [2] was 190 nM.

`O=C(Nc1ccc(Oc2ccnc(NC3CC3)n2)c2ccccc12)c1cc(F)cc(N2CCOCC2)c1` [Compound B321, N-(4-{[2-(Cyclopropylamino)pyrimidin-4-yl]oxy}-1-naphthyl)-3-fluoro-5-morpholin-4-ylbenzamide] yielded a melting point of 118 to 120 °C. For the same molecule, the IC50 in data set [1] was found to be 3.1 nM. Moreover, the IC50 in data set [2] is 76.1 nM.

`CC(C)N(C)c1nccc(Oc2ccc(NC(=O)c3cc(F)cc(N4CCOCC4)c3)c3ccccc23)n1` [Compound B322, 3-Fluoro-N-[4-({2-[isopropyl(methyl)amino]pyrimidin-4-yl}oxy)-1-naphthyl]-5-morpholin-4-ylbenzamide] yielded a melting point of 94 to 96 °C. Further, in data set [1], the IC50 turned out to be 44.6 nM. In addition, the IC50 in data set [2] was found to be 607 nM.

`O=C(Nc1ccc(Oc2ccnc(NC3CCCCC3)n2)c2ccccc12)c1cc(F)cc(N2CCOCC2)c1` [Compound B323, N-(4-{[2-(Cyclohexylamino)pyrimidin-4-yl]oxy}-1-naphthyl)-3-fluoro-5-morpholin-4-ylbenzamide]: the melting point is 135 to 136 °C. Also, the IC50 in data set [1] worked out at 11.9 nM. The IC50 in data set [2] was determined as 36.1 nM.

On to `O=C(Nc1ccc(Oc2ccnc(N3CCCCC3)n2)c2ccccc12)c1cc(F)cc(N2CCOCC2)c1` [Compound B324, 3-Fluoro-5-morpholin-4-yl-N-{4-[(2-piperidin-1-ylpyrimidin-4-yl)oxy]-1-naphthyl}benzamide], for which the melting point lay in the range of 190 to 191 °C. The IC50 in data set [1] is 19 nM. Also, the concentration for half-maximal inhibition (IC50) in data set [2] was above 1000 nM.

The molecule `O=C(Nc1ccc(Oc2ccnc(-n3ccnc3)n2)c2ccccc12)c1cc(F)cc(N2CCOCC2)c1` [Compound B325, 3-Fluoro-N-(4-{[2-(1H-imidazol-1-yl)pyrimidin-4-yl]oxy}-1-naphthyl)-5-morpholin-4-ylbenzamide] came in with a melting point of 153 to 154 °C. The concentration for half-maximal inhibition (IC50) in data set [1] was 34.4 nM. The IC50 in data set [2] came to 247 nM.

As to `O=C(Nc1ccc(Oc2ccnc(NCCN3CCOCC3)n2)c2ccccc12)c1cc(F)cc(N2CCOCC2)c1` [Compound B326, 3-Fluoro-5-morpholin-4-yl-N-[4-({2-[(2-morpholin-4-ylethyl)amino]pyrimidin-4-yl}oxy)-1-naphthyl]benzamide], the melting point was in the range of 112 to 114 °C. Besides, in data set [1], the IC50 came to 3.1 nM. Besides, the IC50 in data set [2] was found to be 76.8 nM.

Molecule `O=C(Nc1ccc(Oc2ccnc(NCC3CCCO3)n2)c2ccccc12)c1cc(F)cc(N2CCOCC2)c1` (stereo not drawn) [Compound B327, 3-Fluoro-5-morpholin-4-yl-N-[4-({2-[(tetrahydrofuran-2-ylmethyl)amino]pyrimidin-4-yl}oxy)-1-naphthyl]benzamide] yielded a melting point of 103 to 105 °C. For the same molecule, in data set [1], the IC50 was found to be 2.1 nM. Moreover, the concentration for half-maximal inhibition (IC50) in data set [2] worked out at 24.8 nM.

The molecule `CN1CCN(c2nccc(Oc3ccc(NC(=O)c4cc(F)cc(N5CCOCC5)c4)c4ccccc34)n2)CC1` [Compound B328, 3-Fluoro-N-(4-{[2-(4-methylpiperazin-1-yl)pyrimidin-4-yl]oxy}-1-naphthyl)-5-morpholin-4-ylbenzamide] yielded a melting point of 195 to 197 °C. The IC50 in data set [1] amounted to 4.4 nM. In addition, the 50% inhibitory concentration (IC50) in data set [2] was determined as 149 nM.

`O=C(Nc1ccc(Oc2ccnc(NC3CCC3)n2)c2ccccc12)c1cc(F)cc(N2CCOCC2)c1` [Compound B331, N-(4-{[2-(Cyclobutylamino)pyrimidin-4-yl]oxy}-1-naphthyl)-3-fluoro-5-morpholin-4-ylbenzamide] registered a melting point of 110 to 112 °C. Also, in data set [1], the IC50 came out at 3.7 nM. Moreover, the half-inhibitory concentration (IC50) in data set [2] turned out to be 237 nM.

With `O=C(Nc1ccc(Oc2ccnc(N3CCC(O)CC3)n2)c2ccccc12)c1cc(F)cc(N2CCOCC2)c1` [Compound B332, 3-Fluoro-N-(4-{[2-(4-hydroxypiperidin-1-yl)pyrimidin-4-yl]oxy}-1-naphthyl)-5-morpholin-4-ylbenzamide], the melting point fell in the range of 106 to 108 °C. In addition, the 50% inhibitory concentration (IC50) in data set [1] is 5 nM. Also, in data set [2], the concentration for half-maximal inhibition (IC50) turned out to be 252 nM.

Molecule `O=C(Nc1ccc(Oc2ccnc(N3CCCC3)n2)c2ccccc12)c1cc(F)cc(N2CCOCC2)c1` [Compound B334, 3-Fluoro-5-morpholin-4-yl-N-{4-[(2-pyrrolidin-1-ylpyrimidin-4-yl)oxy]-1-naphthyl}benzamide] showed a melting point of 205 to 207 °C. In addition, the IC50 in data set [1] was found to be 8.2 nM. In addition, the IC50 in data set [2] was determined as 276 nM.

In the case of `CC1CCN(c2nccc(Oc3ccc(NC(=O)c4cc(F)cc(N5CCOCC5)c4)c4ccccc34)n2)CC1` [Compound B335, 3-Fluoro-N-(4-{[2-(4-methylpiperidin-1-yl)pyrimidin-4-yl]oxy}-1-naphthyl)-5-morpholin-4-ylbenzamide], the melting point is 117 to 118 °C. Besides, the IC50 in data set [1] was determined as 22.2 nM. In data set [2], the concentration for half-maximal inhibition (IC50) was above 1000 nM.

In turn, `O=C(Nc1ccc(Oc2ccnc(NCC3CC3)n2)c2ccccc12)c1cc(F)cc(N2CCOCC2)c1` [Compound B336, N-[4-({2-[(Cyclopropylmethyl)amino]pyrimidin-4-yl}oxy)-1-naphthyl]-3-fluoro-5-morpholin-4-ylbenzamide] had a melting point of 116 to 117 °C. In data set [1], the IC50 is 2.5 nM. Further, the IC50 in data set [2] stood at 5.8 nM.

As to `CC1CCC(Nc2nccc(Oc3ccc(NC(=O)c4cc(F)cc(N5CCOCC5)c4)c4ccccc34)n2)CC1` (stereo not drawn) [Compound B337, 3-Fluoro-N-[4-({2-[(4-methylcyclohexyl)amino]pyrimidin-4-yl}oxy)-1-naphthyl]-5-morpholin-4-ylbenzamide], the melting point fell in the range of 116 to 117 °C. Further, the IC50 in data set [1] was determined as 33.3 nM. Moreover, the concentration for half-maximal inhibition (IC50) in data set [2] came to 65.6 nM.

For the molecule `O=C(Nc1ccc(Oc2ccnc(NCCN3CCCC3)n2)c2ccccc12)c1cc(F)cc(N2CCOCC2)c1` [Compound B338, 3-Fluoro-5-morpholin-4-yl-N-[4-({2-[(2-pyrrolidin-1-ylethyl)amino]pyrimidin-4-yl}oxy)-1-naphthyl]benzamide], the melting point lay within 95 to 97 °C. Also, the concentration for half-maximal inhibition (IC50) in data set [1] amounted to 17.1 nM. Further, the IC50 in data set [2] worked out at 60.9 nM.

For `O=C(Nc1ccc(Oc2ccnc(N3CCC(O)C3)n2)c2ccccc12)c1cc(F)cc(N2CCOCC2)c1` (stereo not drawn) [Compound B339, 3-Fluoro-N-(4-{[2-(3-hydroxypyrrolidin-1-yl)pyrimidin-4-yl]oxy}-1-naphthyl)-5-morpholin-4-ylbenzamide], the melting point was 137 to 139 °C. Also, in data set [1], the half-maximal inhibitory concentration (IC50) stood at 39.1 nM. Besides, the half-maximal inhibitory concentration (IC50) in data set [2] amounted to 347 nM.

In turn, `CC(C)(C)OC(=O)N1CCN(c2nccc(Oc3ccc(NC(=O)c4cc(F)cc(N5CCOCC5)c4)c4ccccc34)n2)CC1` [Compound B340, t-Butyl-4-[4-({4-[(3-fluoro-5-morpholin-4-ylbenzoyl)amino]-1-naphthyl}oxy)pyrimidin-2-yl]piperazine-1-carboxylate] came in with a melting point of 131 to 133 °C. Also, the IC50 in data set [1] was determined as 55.9 nM. Also, the 50% inhibitory concentration (IC50) in data set [2] was above 1000 nM.

Turning to `CCOC(=O)N1CCC(Nc2nccc(Oc3ccc(NC(=O)c4cc(F)cc(N5CCOCC5)c4)c4ccccc34)n2)CC1` [Compound B341, Ethyl-4-{[4-({4-[(3-fluoro-5-morpholin-4-ylbenzoyl)amino]-1-naphthyl}oxy)pyrimidin-2-yl]amino}piperidine-1-carboxylate], the melting point lay in the range of 122 to 124 °C. Moreover, the IC50 in data set [1] is 10.5 nM. In data set [2], the half-inhibitory concentration (IC50) was determined as 590 nM.

With `CN(C)[C@@H]1CCN(c2nccc(Oc3ccc(NC(=O)c4cc(F)cc(N5CCOCC5)c4)c4ccccc34)n2)C1` [Compound B342, N-[4-({2-[(3R)-3-(dimethylamino)pyrrolidin-1-yl]pyrimidin-4-yl}oxy)-1-naphthyl]-3-fluoro-5-morpholin-4-ylbenzamide], the melting point is 115 to 117 °C. Besides, the IC50 in data set [1] is 22.3 nM. In addition, the IC50 in data set [2] was found to be 61.5 nM.

Molecule `O=C(Nc1ccc(Oc2ccnc(NCCN3CCCCC3)n2)c2ccccc12)c1cc(F)cc(N2CCOCC2)c1` [Compound B343, 3-Fluoro-5-morpholin-4-yl-N-[4-({2-[(2-piperidin-1-ylethyl)amino]pyrimidin-4-yl}oxy)-1-naphthyl]benzamide] registered a melting point of 98 to 100 °C. In data set [1], the half-maximal inhibitory concentration (IC50) amounted to 15.2 nM. For the same molecule, in data set [2], the 50% inhibitory concentration (IC50) came to 136 nM.
